Source: the supplement of paper PMC13207355

Assays:
Settings in all cases: exposure time: 72 h
[1] = test system: E57 (patient-derived glioblastoma stem cells of mesenchymal subtype); assay: surviving fraction (nuclei count normalised to DMSO); higher = more cells surviving (less toxic)
[2] = test system: FT3469 (normal neural stem cell line); assay: as above
[3] = test system: E34 (patient-derived glioblastoma stem cells of proneural subtype); assay: as above
[4] = test system: E28 (patient-derived glioblastoma stem cells of classical subtype); assay: as above
[5] = test system: E13 (patient-derived glioblastoma stem cells of classical subtype); assay: as above
[6] = test system: E21 (patient-derived glioblastoma stem cells of mesenchymal subtype); assay: as above
[7] = test system: E31 (patient-derived glioblastoma stem cells of proneural subtype); assay: as above
[8] = test system: E57; assay: phenotypic distance (Euclidean, principal components) from DMSO controls (arbitrary units); higher = stronger morphological change
[9] = test system: FT3469; assay: as above
[10] = test system: E34; assay: as above
[11] = test system: E28; assay: as above
[12] = test system: E13; assay: as above
[13] = test system: E21; assay: as above
[14] = test system: E31; assay: as above
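For phenotypic distance (Euclidean, principal components) from DMSO controls in this document: cell Painting imaging in 384-well plates, CellProfiler features reduced to at least 20 principal components, Euclidean distance versus same-plate DMSO vehicle wells (0.1% v/v), median over six images per well.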
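For surviving fraction (nuclei count normalised to DMSO) in this document: nuclei counted by high-content imaging of Hoechst-stained cells in laminin-coated 384-well plates, relative to 0.1% DMSO vehicle wells, with staurosporine as cell-death control.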

S=c1[nH]cnc2nc[nH]c12 [Mercaptopurine]
Settings | phenotypic distance | surviving fraction
[1], 4.1 nM | – | 1.14
[1], 12.3 nM | – | 1.06
[1], 37 nM | – | 1.02
[1], 111.1 nM | – | 1.03
[1], 333.3 nM | – | 1.06
[1], 1000 nM | – | 1.11
[1], 3000 nM | – | 1.1
[2], 4.1 nM | – | 1.13
[2], 12.3 nM | – | 1.18
[2], 37 nM | – | 1.05
[2], 111.1 nM | – | 1.24
[2], 333.3 nM | – | 1.1
[2], 1000 nM | – | 1.09
[2], 3000 nM | – | 1.18
[3], 4.1 nM | – | 1.04
[3], 12.3 nM | – | 1.18
[3], 37 nM | – | 1.17
[3], 111.1 nM | – | 1.09
[3], 333.3 nM | – | 0.961
[3], 1000 nM | – | 1.18
[3], 3000 nM | – | 0.823
[4], 4.1 nM | – | 0.929
[4], 12.3 nM | – | 1.02
[4], 37 nM | – | 0.893
[4], 111.1 nM | – | 1.13
[4], 333.3 nM | – | 0.931
[4], 1000 nM | – | 0.942
[4], 3000 nM | – | 0.996
[5], 4.1 nM | – | 0.921
[5], 12.3 nM | – | 0.917
[5], 37 nM | – | 0.937
[5], 111.1 nM | – | 1.04
[5], 333.3 nM | – | 0.899
[5], 1000 nM | – | 1.07
[5], 3000 nM | – | 0.933
[6], 4.1 nM | – | 1.09
[6], 12.3 nM | – | 1.04
[6], 37 nM | – | 0.958
[6], 111.1 nM | – | 1.01
[6], 333.3 nM | – | 0.977
[6], 1000 nM | – | 0.922
[6], 3000 nM | – | 1.05
[7], 4.1 nM | – | 1.1
[7], 12.3 nM | – | 1.04
[7], 37 nM | – | 0.994
[7], 111.1 nM | – | 1.08
[7], 333.3 nM | – | 1
[7], 1000 nM | – | 1.16
[7], 3000 nM | – | 0.862
[8], 4.1 nM | 0.611 | –
[8], 12.3 nM | 0.822 | –
[8], 37 nM | 1.19 | –
[8], 111.1 nM | 0.97 | –
[8], 333.3 nM | 0.524 | –
[8], 1000 nM | 0.658 | –
[8], 3000 nM | 0.893 | –
[9], 4.1 nM | 0.501 | –
[9], 12.3 nM | 0.977 | –
[9], 37 nM | 0.81 | –
[9], 111.1 nM | 1.22 | –
[9], 333.3 nM | 0.759 | –
[9], 1000 nM | 0.781 | –
[9], 3000 nM | 0.82 | –
[10], 4.1 nM | 0.504 | –
[10], 12.3 nM | 0.959 | –
[10], 37 nM | 0.783 | –
[10], 111.1 nM | 0.796 | –
[10], 333.3 nM | 0.438 | –
[10], 1000 nM | 0.992 | –
[10], 3000 nM | 0.809 | –
[11], 4.1 nM | 0.534 | –
[11], 12.3 nM | 1.01 | –
[11], 37 nM | 0.638 | –
[11], 111.1 nM | 0.681 | –
[11], 333.3 nM | 0.395 | –
[11], 1000 nM | 0.531 | –
[11], 3000 nM | 0.838 | –
[12], 4.1 nM | 0.545 | –
[12], 12.3 nM | 0.627 | –
[12], 37 nM | 0.483 | –
[12], 111.1 nM | 0.814 | –
[12], 333.3 nM | 0.609 | –
[12], 1000 nM | 0.518 | –
[12], 3000 nM | 0.658 | –
[13], 4.1 nM | 0.78 | –
[13], 12.3 nM | 1.43 | –
[13], 37 nM | 0.81 | –
[13], 111.1 nM | 0.892 | –
[13], 333.3 nM | 0.78 | –
[13], 1000 nM | 1.02 | –
[13], 3000 nM | 0.813 | –
[14], 4.1 nM | 0.771 | –
[14], 12.3 nM | 0.551 | –
[14], 37 nM | 0.636 | –
[14], 111.1 nM | 0.699 | –
[14], 333.3 nM | 0.484 | –
[14], 1000 nM | 0.59 | –
[14], 3000 nM | 0.762 | –
